Data published in ChEMBL document CHEMBL1201862, “PubChem BioAssay data set” (2004).
Activity calls are given as the source filed them.

What was measured:
Cytochrome P450 3A4 = Cytochrome P450 3A4 (Homo sapiens, UniProt P08684);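 note: CYP3A4 tested as one member of a cytochrome P450 panel screen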
Cytochrome P450 2C9 = Cytochrome P450 2C9 (Homo sapiens, UniProt P11712)
Troponin, cardiac muscle = Troponin, cardiac muscle (Homo sapiens, UniProt P19429+P45379+P63316); test: Fluorescence-based biochemical high throughput dose response assay for activators of the calcium sensitivity of cardiac Regulated Thin Filaments (RTF). [Related pubchem assays (depositor defined):AID493008, AID493018, AID504382, AID504383]; format: protein-complex assay
[1] = A Cell Based Secondary Assay To Explore Cytotoxicity of Compounds that Sensitize Mycobacterium Tuberculosis to Beta-Lactam Antibiotics.; format: functional
[2] = HepG2 cell cytotoxicity, dose response, cytotoxicity control, plate reader, cherry-pick, antagonist series (AID 743416); format: functional, cell-based
[3] = A549 cell cytotoxicity, dose response, cytotoxicity control, plate reader, cherry-pick, antagonist series (AID 743412); format: functional, cell-based
[4] = LGR2 antagonists, dose response, cell-based, HEK293, CRE-luciferase reporter, cherry pick, set 2 (AID 743343); format: functional;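 note: transfected cells were stimulated with diluted bursicon conditioned medium after compound addition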
[5] = Luminescence Cell-Based Dose Retest to Confirm Inhibitors of Cancer Stem Cells. [Related pubchem assays (depositor defined):AID2717, AID2721]; format: functional; settings: Homo sapiens
[6] = HEK293 cell cytotoxicity, dose response, cytotoxicity control, plate reader, cherry-picked samples (AID 743446); format: functional, cell-based
[7] = MC4R antagonists, dose response, counter-screen for LGR2 antagonist project, cell-based, plate reader, cherry pick (AID 743444); format: functional;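 note: transfected HEK 293 cells stimulated with alpha-MSH peptide; potency of inhibitors of the alpha-MSH evoked signal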
[8] = A cytotoxicity screen of small molecule inhibitors of the PhoP region in Salmonella typhi identified in the primary screen. [Related pubchem assays: 1850, 1864, 1985 ]; format: functional
[9] = Luminescence Cell-Based Dose Response HTS to Identify Activators of Luciferase Translation or Activity in H4 […] Cells. [Related pubchem assays: 1829 (Project Summary), 1814 (Primary HTS)]; format: functional
HeLa = test: HeLa cell cytotoxicity, dose response, cytotoxicity control for MITF activator project, CellTiter-Glo luminescence, cherry-pick samples (AID 540259); format: functional, cell-based; settings: Homo sapiens
H4 = test: Luminescence Cell-Based Dose Response HTS to Identify Activators of 5'UTR Stem-Loop Driven Prion Protein mRNA Translation in H4 Neuroglioblastoma Cells. [Related pubchem assays: 1829 (Project Summary), 1814 (Primary HTS)]; format: functional; settings: Homo sapiens
[10] = target: T1, Alkaline phosphatase, tissue-nonspecific isozyme (Homo sapiens, UniProt P05186); test: human TNAP enzyme inhibitors, SAR follow-up, biochemical, luminescent, dose response (AID 1056)
T1 sequence (P05186 whole entry): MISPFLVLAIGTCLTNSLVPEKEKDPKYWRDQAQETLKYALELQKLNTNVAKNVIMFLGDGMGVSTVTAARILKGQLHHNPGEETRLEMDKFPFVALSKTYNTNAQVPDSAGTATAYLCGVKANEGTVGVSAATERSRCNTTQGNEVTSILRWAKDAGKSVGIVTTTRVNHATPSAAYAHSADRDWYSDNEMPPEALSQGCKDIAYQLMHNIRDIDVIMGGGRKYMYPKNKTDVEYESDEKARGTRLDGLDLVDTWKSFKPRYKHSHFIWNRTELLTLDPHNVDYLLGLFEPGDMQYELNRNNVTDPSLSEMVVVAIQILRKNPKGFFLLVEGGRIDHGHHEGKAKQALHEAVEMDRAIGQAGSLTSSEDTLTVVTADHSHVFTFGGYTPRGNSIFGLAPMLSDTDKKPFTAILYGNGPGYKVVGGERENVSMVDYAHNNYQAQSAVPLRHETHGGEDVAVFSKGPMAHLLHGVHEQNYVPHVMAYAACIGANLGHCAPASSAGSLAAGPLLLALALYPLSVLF

[11] = target: Glyceraldehyde-3-phosphate dehydrogenase (Homo sapiens, UniProt P04406)
Vero = test: cells; format: functional; settings: Chlorocebus sabaeus
Protein RecA = target: T2, Protein RecA (Mycobacterium tuberculosis, UniProt P9WHJ3); test: Fluorescence Cell-Free Homogeneous Dose Retest to Identify Inhibitors of RecA-Intein Splicing Activity. [Related pubchem assays (depositor defined):AID2097, AID2223, AID489010, AID492950]; format: functional
T2 sequence (P9WHJ3 whole entry): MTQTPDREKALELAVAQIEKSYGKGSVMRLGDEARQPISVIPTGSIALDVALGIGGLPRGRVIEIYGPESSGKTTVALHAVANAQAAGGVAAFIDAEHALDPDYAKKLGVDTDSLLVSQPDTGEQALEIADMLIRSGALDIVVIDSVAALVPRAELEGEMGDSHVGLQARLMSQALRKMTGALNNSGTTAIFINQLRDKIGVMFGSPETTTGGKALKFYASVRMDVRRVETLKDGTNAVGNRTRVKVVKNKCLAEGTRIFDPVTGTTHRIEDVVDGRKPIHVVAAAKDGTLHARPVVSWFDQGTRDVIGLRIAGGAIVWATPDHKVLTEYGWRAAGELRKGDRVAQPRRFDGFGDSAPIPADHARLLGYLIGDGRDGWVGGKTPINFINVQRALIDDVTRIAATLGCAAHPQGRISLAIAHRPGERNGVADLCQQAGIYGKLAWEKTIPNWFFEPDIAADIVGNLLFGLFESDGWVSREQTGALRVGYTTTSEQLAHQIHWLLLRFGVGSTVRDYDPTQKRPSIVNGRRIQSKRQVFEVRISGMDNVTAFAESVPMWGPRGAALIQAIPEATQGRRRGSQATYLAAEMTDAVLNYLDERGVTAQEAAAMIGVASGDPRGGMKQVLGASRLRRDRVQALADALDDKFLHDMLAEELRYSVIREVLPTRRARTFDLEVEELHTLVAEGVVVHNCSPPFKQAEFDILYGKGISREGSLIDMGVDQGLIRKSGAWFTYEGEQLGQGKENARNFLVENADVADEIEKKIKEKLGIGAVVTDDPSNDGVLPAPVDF

[12] = target: T3, Replicative DNA helicase DnaB (Mycobacterium tuberculosis, UniProt P9WMR3); test: DnaB intein splicing inhibitors, dose response, biochemical, cell-free fluorescence (AID 449749); format: functional
T3 sequence (P9WMR3 whole entry): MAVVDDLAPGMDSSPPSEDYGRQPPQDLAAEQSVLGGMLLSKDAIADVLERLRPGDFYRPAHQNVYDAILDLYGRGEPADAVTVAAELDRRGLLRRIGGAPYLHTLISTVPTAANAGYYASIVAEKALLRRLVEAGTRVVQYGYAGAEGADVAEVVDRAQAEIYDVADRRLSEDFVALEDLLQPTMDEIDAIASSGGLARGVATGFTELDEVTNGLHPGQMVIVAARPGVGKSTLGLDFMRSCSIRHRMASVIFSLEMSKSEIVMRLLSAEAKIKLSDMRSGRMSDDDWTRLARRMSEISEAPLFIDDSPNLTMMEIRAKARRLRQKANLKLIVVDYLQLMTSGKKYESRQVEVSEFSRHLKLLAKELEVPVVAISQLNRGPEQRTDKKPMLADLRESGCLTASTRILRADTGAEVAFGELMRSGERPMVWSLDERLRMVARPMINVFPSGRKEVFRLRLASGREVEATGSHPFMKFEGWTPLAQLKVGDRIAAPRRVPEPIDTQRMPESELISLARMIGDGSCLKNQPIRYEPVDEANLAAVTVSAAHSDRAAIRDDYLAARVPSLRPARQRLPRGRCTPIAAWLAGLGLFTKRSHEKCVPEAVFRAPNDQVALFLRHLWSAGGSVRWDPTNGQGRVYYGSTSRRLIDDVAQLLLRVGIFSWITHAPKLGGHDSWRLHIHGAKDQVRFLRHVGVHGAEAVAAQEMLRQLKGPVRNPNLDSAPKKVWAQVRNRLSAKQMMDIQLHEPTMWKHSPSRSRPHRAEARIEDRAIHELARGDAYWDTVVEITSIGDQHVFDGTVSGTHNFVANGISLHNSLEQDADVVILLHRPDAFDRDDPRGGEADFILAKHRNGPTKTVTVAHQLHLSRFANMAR

[13] = target: T4, Ubiquitin-conjugating enzyme E2 N (Homo sapiens, UniProt P61088); format: functional;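 note: Dose-response confirmation in a TR-FRET assay detecting UBC13-driven polyubiquitin chain formation, inhibition measured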
T4 sequence (P61088 whole entry): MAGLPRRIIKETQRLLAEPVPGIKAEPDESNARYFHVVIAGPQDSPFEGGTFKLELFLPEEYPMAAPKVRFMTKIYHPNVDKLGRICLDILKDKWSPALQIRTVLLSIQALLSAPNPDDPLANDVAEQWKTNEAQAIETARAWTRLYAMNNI

[14] = target: T5, Microphthalmia-associated transcription factor (Homo sapiens, UniProt O75030); test: TRPM1 promoter luciferase signal decrease, dose response, MITF inhibitor project, cell-based, SK-MEL-5, cherry-picked, set 3 (AID 493073); format: functional
T5 sequence (O75030 whole entry): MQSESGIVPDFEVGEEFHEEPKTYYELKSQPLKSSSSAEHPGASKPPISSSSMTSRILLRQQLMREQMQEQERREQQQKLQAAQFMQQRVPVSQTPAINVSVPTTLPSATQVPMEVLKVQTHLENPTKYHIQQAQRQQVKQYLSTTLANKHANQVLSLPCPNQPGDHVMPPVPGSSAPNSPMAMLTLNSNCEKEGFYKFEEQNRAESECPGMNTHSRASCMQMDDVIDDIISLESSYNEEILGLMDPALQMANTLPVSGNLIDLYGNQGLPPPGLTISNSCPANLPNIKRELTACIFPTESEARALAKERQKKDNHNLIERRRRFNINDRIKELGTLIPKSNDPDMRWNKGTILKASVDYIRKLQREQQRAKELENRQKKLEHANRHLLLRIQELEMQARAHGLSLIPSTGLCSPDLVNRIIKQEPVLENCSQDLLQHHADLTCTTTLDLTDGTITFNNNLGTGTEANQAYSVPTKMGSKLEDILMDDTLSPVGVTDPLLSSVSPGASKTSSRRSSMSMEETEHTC

[15] = inhibitors of intracellular T. cruzi replication, confirmation, NIH3T3 host cells, beta-gal luminescence (AID 2044); format: functional, cell-based;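 note: intracellular parasites grown in NIH/3T3 mouse fibroblasts as host cells; luminescent beta-galactosidase reporter signal from transgenic T. cruzi replicating inside host cells; inhibitors lower the luminescence signal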
[16] = cytotoxicity toward NIH3T3 fibroblasts, dose response, counter-screen, cell-based, ATP luminescence, mouse fibroblasts (AID 2010); format: functional;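 note: cells exposed to compound for about 90 hours before reading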

Structure (SMILES): Cn1c(=N)c(S(=O)(=O)c2ccc(F)cc2)cc2c(=O)n3ccccc3nc21
- AC50 (Cytochrome P450 3A4): inconclusive
- AC50 (Cytochrome P450 2C9): 17.8 µM (inconclusive)

Structure (SMILES): Cc1ccccc1-n1nnnc1SCC(C)C
- EC50 (Troponin, cardiac muscle): > 71.5 µM (inactive)

Structure (SMILES): Cn1nnnc1Sc1ncnc2scc(-c3ccc(C(F)(F)F)cc3)c12
- CC50 [1]: 6.16 µM (active)
- AC50 [2]: 8.47 µM (active)
- AC50 [3]: 7.67 µM (active)
- AC50 [4]: 14.8 µM (active)
- AC50 [5]: 2.52 µM (active)
- AC50 [6]: 8.08 µM (active)
- AC50 [7]: 17.7 µM (active)

Structure (SMILES): CCn1cc(C(=O)NCCCN(C)C)c(=O)c2cc(F)c(N3CCN(C)CC3)cc21
- EC50 [8]: > 50 µM (active)

Structure (SMILES): C[C@@H](C(=O)NC1CCCC1)N1C(=O)N2CCc3c([nH]c4ccccc34)[C@@]2(C)C1=O
- EC50 [8]: > 50 µM (active)

Structure (SMILES): Cn1c(C(=O)NCCc2c[nH]c3ccccc23)cc2sccc21
- EC50 [9]: 21.7 µM (active)
- AC50 (HeLa): 239 µM (active)
- EC50 (H4): 14.7 µM (active)

Structure (SMILES): COc1ccc(S(=O)(=O)Nc2cnc3ccccc3c2)cc1OC
- IC50 [10]: > 100 µM (inactive)
- IC50 [11]: > 100 µM (not active)

Structure (SMILES): O=C(Cc1nc2ccccc2[nH]1)c1cccc([N+](=O)[O-])c1
- AC50 [2]: 11.2 µM (active)
- AC50 [3]: 20.7 µM (active)
- AC50 [4]: 4.47 µM (active)
- CC50 (Vero): 6.19 µM (active)
- AC50 [6]: 12.1 µM (active)
- AC50 [7]: 5.45 µM (active)

Structure (SMILES): CC(=O)NCCn1c(SCc2ccccc2C)nc2ccccc2c1=O
- EC50 (Protein RecA): 83.2 µM (active)
- EC50 [8]: > 50 µM (active)
- AC50 [12]: 28.4 µM (active)

Structure (SMILES): Cn1c2ccccc2c(=O)c2ccc(-c3ccc4c(c3)OCO4)cc21
- AC50 (HeLa): 46.6 µM (active)

Structure (SMILES): O=C(CCNc1ccccc1)c1ccc2c(c1)OCO2
- AC50 (HeLa): 111 µM (active)

Structure (SMILES): COc1ccc(C[C@@H]2CN3C(=NC[C@@H]3Cc3ccc(O)cc3)N2C[C@H](C)NC(=O)CCC2CCCCC2)cc1
- IC50 [13]: > 20 µM (inactive)

Structure (SMILES): COC(=O)N1CCC2(CC1)CCN(c1ncccn1)CC2
- AC50 (Cytochrome P450 3A4): inconclusive

Structure (SMILES): CCC(C(=O)NC1CCCC1)N(C(=O)c1snc(C(N)=O)c1N)c1ccc(OC)cc1 (stereo not given)
- IC50 [13]: > 20 µM (inactive)

Structure (SMILES): Cc1ccc(-c2cc(C(=O)O)[nH]n2)cc1C
- IC50 [10]: 62.9 µM (active)
- IC50 [11]: > 100 µM (not active)

Structure (SMILES): CC1=NN(c2ccccc2)C(=O)/C1=C/C=C/c1ccccc1
- CC50 (Vero): 11.3 µM (active)
- AC50 [5]: 2.41 µM (active)

Structure (SMILES): COc1ccccc1-c1nnc(SCc2nc3ccccc3s2)n1C
- EC50 (Troponin, cardiac muscle): > 71.5 µM (inactive)

Structure (SMILES): CC1CCC(NC(=O)c2cc3ccccc3cc2O)CC1 (stereo not given)
- AC50 (HeLa): 35.2 µM (active)

Structure (SMILES): COc1ccc(CCNC(=O)COC(=O)c2cc(=O)[nH]c3ccccc23)cc1
- EC50 (Troponin, cardiac muscle): > 71.5 µM (inactive)

Structure (SMILES): COc1cc(OC)cc(-c2oc(=O)c3cc(OC)c(OC)cc3c2C(F)(F)F)c1
- AC50 [14]: 12.8 µM (active)

Structure (SMILES): CCN(CC)S(=O)(=O)c1cccc(C(=O)N/N=C/c2ccc([N+](=O)[O-])o2)c1
- EC50 [15]: 0.218 µM (active)
- EC50 [16]: 13.3 µM (active)
- AC50 [14]: 14.1 µM (active)

Structure (SMILES): CN(C(=O)C(Cl)Cl)c1ccc(OC(=O)c2ccco2)cc1 [DILOXANIDE FUROATE]
- EC50 (Protein RecA): 10.3 µM (active)
- AC50 (Cytochrome P450 3A4): inconclusive
- AC50 [12]: 13.9 µM (active)
